biological target: T1, human chemokine receptor 2 isoform B (CCR2) (Homo sapiens, UniProt P41597); experiment: Calcium mobilization assay (FLIPR, MCP-1 stimulated CHOK1-CCR2B-A5 cells); type: cell-based; settings: Ca mobilisation assay, CCR2 antagonist activity, inhibition of MCP-1 induced calcium increase
T1 sequence (P41597 1-360 isoform P41597-2): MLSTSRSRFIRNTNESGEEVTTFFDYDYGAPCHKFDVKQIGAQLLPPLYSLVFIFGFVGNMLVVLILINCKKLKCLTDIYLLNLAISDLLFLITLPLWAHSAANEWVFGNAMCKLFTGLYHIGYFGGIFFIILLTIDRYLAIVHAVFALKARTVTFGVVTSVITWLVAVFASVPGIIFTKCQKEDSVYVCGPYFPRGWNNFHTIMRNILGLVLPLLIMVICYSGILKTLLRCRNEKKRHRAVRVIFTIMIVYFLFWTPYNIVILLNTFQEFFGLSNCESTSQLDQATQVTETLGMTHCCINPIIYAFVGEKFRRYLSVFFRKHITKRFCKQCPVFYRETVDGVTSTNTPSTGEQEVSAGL
Experimental: Calcium Mobilization Assay
CHOK1-CCR2B-A5 cells (from Euroscreen) stably overexpressing the human chemokine receptor 2 isoform B were cultured in Nutrient Hams F12 medium supplemented with 5% FBS, 100 U/ml penicillin, 100 μg/ml streptomycin, 400 μg/ml G418 and 5 μg/ml puromycin.
For the assay cells were grown overnight in 384-well black clear flat bottom polystyrene plates (Costar) at 37° C. at 5% CO2. After washing with DMEM, 20 mM Hepes, 2.5 mM probenecid, 0.1% BSA (DMEM assay buffer) cells were loaded with 4 μM Fluo-4 in the same DMEM assay buffer for 2 hours at 30° C. Excess dye was removed and cells were washed with DMEM assay buffer. 384-well compound plates were prepared with DMEM assay buffer/0.5% DMSO with or without various concentrations of test compounds. Usually compounds were tested for agonist and antagonist activity.
Test compounds were added to the assay plate and agonist activity was monitored as fluorescence for 80 seconds with a FLIPR (488 nm excitation; 510-570 nm emission; Molecular Devices). After 20-30 min. of incubation at 30° C., […] MCP-1 (R&D; Roche) was added and fluorescence was monitored again for 80 seconds. Increases in intracellular calcium are reported as maximum fluorescence after agonist exposure minus basal fluorescence before exposure. Antagonist activity is indicated as inhibitor concentration required for 50% inhibition of specific calcium increases.

SMILES | IC50 [nM]
C[C@H]1C(=O)N(CCN2CCC3(CC3)[C@H](O)C2)CCN1C(=O)Nc1ccc(Cl)c(Cl)c1 [Example 104, (S)-4-[2-((S)-4-Hydroxy-6-aza-spiro[2.5]oct-6-yl)-ethyl]-2-methyl-3-oxo-piperazine-1-carboxylic acid (3,4-dichloro-phenyl)-amide] | 382
O=C(Nc1cccc(Cl)c1)N1CCC(=O)N([C@H](CO)CCN2CCC3(CC3)[C@H](O)C2)CC1 [Example 4, 4-[(S)-3-((S)-4-Hydroxy-6-aza-spiro[2.5]oct-6-yl)-1-hydroxymethyl-propyl]-5-oxo-[1,4]diazepane-1-carboxylic acid (3-chloro-phenyl)-amide] | 10
COC(=O)[C@H](CCN1CCC2(CC2)[C@H](O)C1)N1CCN(C(=O)Nc2cccc(Cl)c2)CCC1=O [Example 3, (S)-2-[4-(3-Chloro-phenylcarbamoyl)-7-oxo-[1,4]diazepan-1-yl]-4-((S)-4-hydroxy-6-aza-spiro[2.5]oct-6-yl)-butyric acid methyl ester] | 270
C[C@H]1C(=O)N(CCCCN2CCC3(CC3)[C@H](O)C2)CCN1C(=O)Nc1ccc2ccccc2c1 [Example 91, (S)-4-[4-((S)-4-Hydroxy-6-aza-spiro[2.5]oct-6-yl)-butyl]-2-methyl-3-oxo-piperazine-1-carboxylic acid naphthalen-2-ylamide] | 6
C[C@H]1C(=O)N(CCCCN2CCC3(CC3)[C@H](O)C2)CCN1C(=O)Nc1ccc(C(F)(F)F)cn1 [Example 99, (S)-4-[4-((S)-4-Hydroxy-6-aza-spiro[2.5]oct-6-yl)-butyl]-2-methyl-3-oxo-piperazine-1-carboxylic acid (5-trifluoromethyl-pyridin-2-yl)-amide] | 24
C[C@H]1C(=O)N([C@@H](CCN2CCC3(CC3)[C@H](O)C2)C(=O)N(C)C)CCN1C(=O)Nc1ccc(Cl)c(Cl)c1 [Example 124, (S)-4-[(S)-1-Dimethylcarbamoyl-3-((S)-4-hydroxy-6-aza-spiro[2.5]oct-6-yl)-propyl]-2-methyl-3-oxo-piperazine-1-carboxylic acid (3,4-dichloro-phenyl)-amide] | 4
COC[C@H](CCN1CCC2(CC2)[C@H](O)C1)N1CCN(C(=O)Nc2ccc(F)c(Cl)c2)[C@@H](C)C1=O [Example 79, (S)-4-[(S)-3-((S)-4-Hydroxy-6-aza-spiro[2.5]oct-6-yl)-1-methoxymethyl-propyl]-2-methyl-3-oxo-piperazine-1-carboxylic acid (3-chloro-4-fluoro-phenyl)-amide] | 3
C[C@H]1C(=O)N(CCCN2CCC3(CC3)[C@H](O)C2)CCN1C(=S)Nc1ccc(Cl)c(Cl)c1 [Example 71, (S)-4-[3-((S)-4-Hydroxy-6-aza-spiro[2.5]oct-6-yl)-propyl]-2-methyl-3-oxo-piperazine-1-carbothioic acid (3,4-dichloro-phenyl)-amide] | 2
C[C@H]1C[C@H](O)CN(CCCN2CCN(C(=O)Nc3ccc(Cl)c(Cl)c3)[C@@H](C)C2=O)C1 [Example 46, (S)-4-[3-((3S,5S)-3-Hydroxy-5-methyl-piperidin-1-yl)-propyl]-2-methyl-3-oxo-piperazine-1-carboxylic acid (3,4-dichloro-phenyl)-amide] | 7
C[C@H]1C(=O)N(CCCCN2CCC3(CC3)[C@H](O)C2)CCN1C(=O)Nc1cccc(Cl)c1 [Example 87, (S)-4-[4-((S)-4-Hydroxy-6-aza-spiro[2.5]oct-6-yl)-butyl]-2-methyl-3-oxo-piperazine-1-carboxylic acid (3-chloro-phenyl)-amide] | 5
C[C@H]1C(=O)N(CCCN2CCCCC2)CCN1C(=O)Nc1cccc(Cl)c1 [Example 35, (S)-2-Methyl-3-oxo-4-(3-piperidin-1-yl-propyl)-piperazine-1-carboxylic acid (3-chloro-phenyl)-amide] | 940
COCC(CCN1CCC2(CC2)[C@H](O)C1)N1CCN(C(=O)NCc2ccc(Cl)c(Cl)c2)CCC1=O (stereo partly drawn) [Example 6, (R,S)-4-[3-((S)-4-Hydroxy-6-aza-spiro[2.5]oct-6-yl)-1-methoxymethyl-propyl]-5-oxo-[1,4]diazepane-1-carboxylic acid 3,4-dichloro-benzylamide] | 840
C[C@H]1C(=O)N(CCCN2CCC[C@@H](O)C2)CCN1C(=O)Nc1ccc(Cl)c(Cl)c1 [Example 48, (S)-4-[3-((R)-3-Hydroxy-piperidin-1-yl)-propyl]-2-methyl-3-oxo-piperazine-1-carboxylic acid (3,4-dichloro-phenyl)-amide] | 370
C[C@H]1CCN(CCCN2CCN(C(=O)Nc3ccc(Cl)c(Cl)c3)[C@@H](C)C2=O)C[C@H]1O [Example 47, (S)-4-[3-((3S,4S)-3-Hydroxy-4-methyl-piperidin-1-yl)-propyl]-2-methyl-3-oxo-piperazine-1-carboxylic acid (3,4-dichloro-phenyl)-amide] | 7
Cc1ccc(NC(=O)N2CCC(=O)N(CCCN3CCC4(CC4)[C@H](O)C3)C[C@H]2C)cc1C [Example 61, (R)-4-[3-((S)-4-Hydroxy-6-aza-spiro[2.5]oct-6-yl)-propyl]-2-methyl-5-oxo-[1,4]diazepane-1-carboxylic acid (3,4-dimethyl-phenyl)-amide] | 210
C[C@H]1C(=O)N(CCCN2CCCCC2)CCN1C(=O)Nc1cccc(-c2ccccc2)c1 [Example 43, (S)-2-Methyl-3-oxo-4-(3-piperidin-1-yl-propyl)-piperazine-1-carboxylic acid biphenyl-3-ylamide] | 610
C[C@H]1C(=O)N(CCCCN2CCC3(CC3)[C@H](O)C2)CCN1C(=O)Nc1cccc(-c2ccncc2)c1 [Example 95, (S)-4-[4-((S)-4-Hydroxy-6-aza-spiro[2.5]oct-6-yl)-butyl]-2-methyl-3-oxo-piperazine-1-carboxylic acid (3-pyridin-4-yl-phenyl)-amide] | 565
C[C@H]1C(=O)N(CCCCN2CCC3(CC3)[C@H](O)C2)CCN1C(=O)Nc1cccc(C(F)(F)F)n1 [Example 101, (S)-4-[4-((S)-4-Hydroxy-6-aza-spiro[2.5]oct-6-yl)-butyl]-2-methyl-3-oxo-piperazine-1-carboxylic acid (6-trifluoromethyl-pyridin-2-yl)-amide] | 316
COCC(CCN1CCC2(CC2)[C@H](O)C1)N1CC(C)N(C(=O)Nc2cccc(Cl)c2)CCC1=O (stereo in doubt) [Example 65, (R)-4-[(S)-3-((S)-4-Hydroxy-6-aza-spiro[2.5]oct-6-yl)-1-methoxymethyl-propyl]-2-methyl-5-oxo-[1,4]diazepane-1-carboxylic acid (3-chloro-phenyl)-amide] | 21
C[C@H]1C(=O)N(C[C@@H](O)CN2CCC3(CC3)[C@H](O)C2)CCN1C(=O)Nc1ccc(Cl)c(Cl)c1 [Example 120, (S)-4-[(S)-2-Hydroxy-3-((S)-4-hydroxy-6-aza-spiro[2.5]oct-6-yl)-propyl]-2-methyl-3-oxo-piperazine-1-carboxylic acid (3,4-dichloro-phenyl)-amide] | 2
C[C@H]1C(=O)N(CCCCN2CCC3(CC3)[C@H](O)C2)CCN1C(=O)Nc1ccc(Cl)c(Cl)c1 [Example 90, (S)-4-[4-((S)-4-Hydroxy-6-aza-spiro[2.5]oct-6-yl)-butyl]-2-methyl-3-oxo-piperazine-1-carboxylic acid (3,4-dichloro-phenyl)-amide] | 1
C[C@H]1C(=O)N(CCCN2CCC3(CC3)[C@H](O)C2)CCN1C(=O)Nc1ccc(Cl)c(Cl)c1 [Example 45, (S)-4-[3-((S)-4-Hydroxy-6-aza-spiro[2.5]oct-6-yl)-propyl]-2-methyl-3-oxo-piperazine-1-carboxylic acid (3,4-dichloro-phenyl)-amide] | 2
C[C@H]1C(=O)N([C@@H](CCN2CCC3(CC3)[C@H](O)C2)COC(=O)c2ccccc2)CCN1C(=O)Nc1ccc(Cl)c(Cl)c1 [Example 118, Benzoic acid (S)-2-[(S)-4-(3,4-dichloro-phenylcarbamoyl)-3-methyl-2-oxo-piperazin-1-yl]-4-((S)-4-hydroxy-6-aza-spiro[2.5]oct-6-yl)-butyl ester] | 3
C[C@H]1C(=O)N(CCCN2CCC3(CC3)[C@H](O)C2)CCN1C(=O)NCc1ccc(Cl)cc1 [Example 77, (S)-4-[3-((S)-4-Hydroxy-6-aza-spiro[2.5]oct-6-yl)-propyl]-2-methyl-3-oxo-piperazine-1-carboxylic acid 4-chloro-benzylamide] | 110
C[C@H]1C(=O)N(CCCCN2CCC3(CC3)[C@H](O)C2)CCN1C(=O)Nc1ccc(C(F)(F)F)cc1 [Example 88, (S)-4-[4-((S)-4-Hydroxy-6-aza-spiro[2.5]oct-6-yl)-butyl]-2-methyl-3-oxo-piperazine-1-carboxylic acid (4-trifluoromethyl-phenyl)-amide] | 97

From patent publication US8071586B2, “Heterocyclyl compounds” (Hoffmann-La Roche Inc., priority 2008, dated 2011)
